According to patent publication US20250059199A1, “SOLID FORMS OF A TYK2 INHIBITOR, METHOD OF PREPARATION, AND USE THEREOF” (BeiGene Switzerland GmbH, priority 2021, published 2025):
Counter-ions that a name gives are not always drawn.

Experiments:
[1] = Feasibility of Formulation process (compression, dry grinding, granulation simulation); assay type: physicochemical; settings: for tolerance to compression, dry grinding, granulation simulation: compression at 2, 5, 10 and 20 MPa, Form change and crystallinity
Protocol: Feasibility of Formulation process for Compound 1 mesylate Form C, phosphate Form A, maleate Form A, fumarate Form B hydrochloride Form C, and hydrochloride Form D were evaluated by compression (at 2 MPa, 5 MPa, 10 MPa, and 20 MPa), dry grinding, and granulation simulation experiments.

Bulk stability = assay type: physicochemical; settings: 1 week
Protocol: Bulk stability of Compound 1 mesylate Form C, phosphate Form A, maleate Form A, fumarate Form B was investigated under 25° C./60% RH in an open container and under 40° C./75% RH in an open container over 1 week. Bulk stability of Compound 1 hydrochloride Form C and Form D, were evaluated under 25° C./60% RH in an open container, under 40° C./75% RH in an open container, and at 60° C. in a tight container over 1 week.

[2] = Hygroscopicity by dynamic vapor sorption (DVS) test; assay type: physicochemical; settings: for hygroscopicity: DVS at 25° C.; for Form and crystallinity after the DVS test: after DVS at 25° C.; for water absorbed: from 40% RH to 95% RH at 25° C.
Protocol: It absorbed about 1.1% water from 40% RH to 95% RH at 25° C. […] It absorbed about 2.3% water from 40% RH to 95% RH at 25° C. […] It absorbed about 0.4% water from 40% RH to 95% RH at 25° C. […] It absorbed about 0.29% water from 40% RH to 95% RH at 25° C. […] It absorbed about 0.14% water from 40% RH to 95% RH at 25° C. After the DVS test.

[3] = Solubility in aqueous pH buffers and bio-relevant solutions; assay type: physicochemical; settings: for solubility: in some solvent systems (summary statement)
Protocol: Solubility of the Compound 1 mesylate Form C, phosphate Form A, maleate Form A, and fumarate Form B was measured in 6 aqueous pH buffers and bio-relevant solutions including pH 1.2 HCl solution (0.1 N), pH 4.5 acetate buffer (50 mM), water, pH 2.0 SGF, pH 6.5 FaSSIF-v1, and pH 5.0 FeSSIF-v1 at 37° C. for 1 h and 2 h. Residual solids after the solubility test were analyzed by XRPD.

PK exposure = assay type: in vivo; settings: summary statement, method not given
[4] = Physicochemical stability of Compound 1 Form A (equilibration, evaporation, anti-solvent, DSC heating-cooling cycle experiments); settings: equilibration at 25° C. (18 solvent systems) and 50° C. (19), slow and fast evaporation

Compound	tolerance to compression, dry grinding, granulation simulation [1]	XRPD peaks after compression ([1]; compression under 5 MPa and 10 MPa)	bulk stability (Bulk stability; 25° C./60% RH, open container)	bulk stability (Bulk stability; 40° C./75% RH, open container)	bulk stability (Bulk stability; 60° C., tight container)	hygroscopicity [2]	Form and crystallinity after the DVS test [2]	water absorbed [2]	solubility [3]	PK exposure (PK exposure)	physicochemical stability (crystalline Form after the experiments) [4]	solubility at 1 h ([3]; pH 2, simulated gastric fluid, thermodynamic from solid, SGF, 37° C., at 1 h) [µg/mL]	tolerance to compression ([1]; compression)	XRPD peaks after compression ([1]; compression at 5 MPa, 10 MPa, and 20 MPa)	Form after dry grinding and compression ([1]; dry grinding and compression)	residual solids after the solubility test (XRPD) ([3]; SGF)	DVS behaviour of the potential hydrate ([2]; RH<70%, 25° C.)	DVS behaviour ([2]; from 0% RH to 40% RH, 25° C.)	DVS behaviour ([2]; relative humidity above 40%, 25° C.)
CC(=O)Nc1cc(Nc2cc(C3CCOCC3)cc(S(C)(=O)=O)n2)c(-c2ccc3c(n2)OCC(C)(C)O3)cn1 [Compound 1 hydrochloride Form D, N-(5-(2,2-dimethyl-2,3-dihydro-[1,4]dioxino[2,3-b]pyridin-6-yl)-4-((6-(methylsulfonyl)-4-(tetrahydro-2H-pyran-4-yl)pyridin-2-yl)amino)pyridin-2-yl)acetamide]	good tolerance	became slightly broad	physically and chemically stable	physically and chemically stable	physically and chemically stable	non-hygroscopic	No Form changed	about 0.14%	–	–	–	–	–	–	–	–	–	–	–
CC(=O)Nc1cc(Nc2cc(C3CCOCC3)cc(S(C)(=O)=O)n2)c(-c2ccc3c(n2)OCC(C)(C)O3)cn1 [Compound 1 maleate Form A, N-(5-(2,2-dimethyl-2,3-dihydro-[1,4]dioxino[2,3-b]pyridin-6-yl)-4-((6-(methylsulfonyl)-4-(tetrahydro-2H-pyran-4-yl)pyridin-2-yl)amino)pyridin-2-yl)acetamide]	good tolerance	–	physically and chemically stable	physically and chemically stable	–	slightly hygroscopic	No Form and crystallinity changed	about 0.4%	relatively high solubility	good PK exposure	–	–	–	–	–	–	–	–	–
CC(=O)Nc1cc(Nc2cc(C3CCOCC3)cc(S(C)(=O)=O)n2)c(-c2ccc3c(n2)OCC(C)(C)O3)cn1 [Compound 1 mesylate Form C, N-(5-(2,2-dimethyl-2,3-dihydro-[1,4]dioxino[2,3-b]pyridin-6-yl)-4-((6-(methylsulfonyl)-4-(tetrahydro-2H-pyran-4-yl)pyridin-2-yl)amino)pyridin-2-yl)acetamide]	good tolerance	–	physically and chemically stable	physically and chemically stable	–	slightly hygroscopic	No Form and crystallinity changed	about 1.1%	relatively high solubility	good PK exposure	–	–	–	–	–	–	–	–	–
CC(=O)Nc1cc(Nc2cc(C3CCOCC3)cc(S(C)(=O)=O)n2)c(-c2ccc3c(n2)OCC(C)(C)O3)cn1 [Compound 1 Form A, N-(5-(2,2-dimethyl-2,3-dihydro-[1,4]dioxino[2,3-b]pyridin-6-yl)-4-((6-(methylsulfonyl)-4-(tetrahydro-2H-pyran-4-yl)pyridin-2-yl)amino)pyridin-2-yl)acetamide]	–	–	–	–	–	–	–	–	–	–	still kept the same Form	–	–	–	–	–	–	–	–
CC(=O)Nc1cc(Nc2cc(C3CCOCC3)cc(S(C)(=O)=O)n2)c(-c2ccc3c(n2)OCC(C)(C)O3)cn1 [Compound 1 phosphate Form A, N-(5-(2,2-dimethyl-2,3-dihydro-[1,4]dioxino[2,3-b]pyridin-6-yl)-4-((6-(methylsulfonyl)-4-(tetrahydro-2H-pyran-4-yl)pyridin-2-yl)amino)pyridin-2-yl)acetamide]	good tolerance	–	physically and chemically stable	physically and chemically stable	–	slightly hygroscopic	No Form and crystallinity change	about 2.3%	relatively high solubility	good PK exposure	–	~740	–	–	–	–	–	–	–
CC(=O)Nc1cc(Nc2cc(C3CCOCC3)cc(S(C)(=O)=O)n2)c(-c2ccc3c(n2)OCC(C)(C)O3)cn1 [Compound 1 hydrochloride Form C, N-(5-(2,2-dimethyl-2,3-dihydro-[1,4]dioxino[2,3-b]pyridin-6-yl)-4-((6-(methylsulfonyl)-4-(tetrahydro-2H-pyran-4-yl)pyridin-2-yl)amino)pyridin-2-yl)acetamide]	good tolerance	–	physically and chemically stable	physically and chemically stable	physically and chemically stable	slightly hygroscopic	No Form changed	about 0.29%	–	–	–	–	good tolerance to compression with no Form change and no obvious crystallinity decrease	became slightly broad	–	–	–	–	–
CC(=O)Nc1cc(Nc2cc(C3CCOCC3)cc(S(C)(=O)=O)n2)c(-c2ccc3c(n2)OCC(C)(C)O3)cn1 [Compound 1 fumarate Form B, N-(5-(2,2-dimethyl-2,3-dihydro-[1,4]dioxino[2,3-b]pyridin-6-yl)-4-((6-(methylsulfonyl)-4-(tetrahydro-2H-pyran-4-yl)pyridin-2-yl)amino)pyridin-2-yl)acetamide]	–	–	physically and chemically stable	physically and chemically stable	–	–	still Compound 1 fumarate Form B	–	relatively high solubility	good PK exposure	–	–	–	–	showed Form change	remained unchanged	underwent dehydration when RH<70% and returns back to the anhydrate	stable	started to absorb water when relative humidity was above 40% and converted to a potential hydrate
